Target: Glutamate receptor 2 (Homo sapiens, UniProt P42262)
Experiment: Inhibition of GluR2 receptor

Glutamate receptor 2, sequence (P42262 whole entry): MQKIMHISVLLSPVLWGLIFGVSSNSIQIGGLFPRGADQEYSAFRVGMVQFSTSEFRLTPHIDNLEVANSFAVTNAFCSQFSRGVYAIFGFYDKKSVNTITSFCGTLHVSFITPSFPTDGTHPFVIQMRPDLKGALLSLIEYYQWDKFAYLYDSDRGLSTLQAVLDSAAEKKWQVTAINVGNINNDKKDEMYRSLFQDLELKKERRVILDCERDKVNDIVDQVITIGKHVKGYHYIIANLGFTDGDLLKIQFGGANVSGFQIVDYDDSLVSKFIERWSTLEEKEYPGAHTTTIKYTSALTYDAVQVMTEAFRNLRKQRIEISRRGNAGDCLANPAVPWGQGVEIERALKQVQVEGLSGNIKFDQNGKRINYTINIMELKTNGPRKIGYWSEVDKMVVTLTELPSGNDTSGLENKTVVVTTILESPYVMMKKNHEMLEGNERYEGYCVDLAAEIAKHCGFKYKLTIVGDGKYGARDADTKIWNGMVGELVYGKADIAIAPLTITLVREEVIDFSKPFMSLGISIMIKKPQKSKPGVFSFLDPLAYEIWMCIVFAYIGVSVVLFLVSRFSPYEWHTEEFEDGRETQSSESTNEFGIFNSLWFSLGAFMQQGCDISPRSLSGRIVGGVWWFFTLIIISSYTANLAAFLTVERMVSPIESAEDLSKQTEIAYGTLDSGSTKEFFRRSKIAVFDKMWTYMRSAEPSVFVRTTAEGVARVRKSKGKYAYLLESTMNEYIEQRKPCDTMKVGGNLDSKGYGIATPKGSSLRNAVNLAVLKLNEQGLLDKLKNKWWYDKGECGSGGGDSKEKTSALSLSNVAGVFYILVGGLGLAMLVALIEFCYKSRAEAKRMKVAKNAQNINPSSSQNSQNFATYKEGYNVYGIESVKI

IC50 | SMILES
7.6 µM | O=c1[nH]c2cc3no[n+]([O-])c3cc2[nH]c1=O
1 µM | [N-]=[N+]=Nc1cc2[nH]c(=O)c(=O)[nH]c2cc1[N+](=O)[O-]

Reference: ChEMBL document CHEMBL1140073, “6-Azido-7-nitro-1,4-dihydroquinoxaline-2,3-dione (ANQX) forms an irreversible bond to the active site of the GluR2 AMPA receptor” (J Med Chem, 2008)
